Measured values from ChEMBL document CHEMBL1149074, “Eusynstyelamide, a highly modified dimer peptide from the ascidian Eusynstyela misakiensis” (J Nat Prod, 1994).

System: HCT-116
Test: Cytotoxicity against human HCT116 cells upto 100 ug/ml after 72 hrs by XTT assay
Type: functional, cell-based

With `N=C(N)NCCCCNC(=O)C(O)(O)C(c1c[nH]c2cc(Br)ccc12)C(O)(Cc1c[nH]c2cc(Br)ccc12)C(=O)NCCCCNC(=N)N` (stereo unspecified) the Activity was “Not toxic”.
